Tested on: Malassezia furfur CBS 1878
Assay: Antifungal disk diffusion susceptibility test
Format: cell-based
Conditions: 15 nmol per 6 mm paper disc; ML2 plates; two days at 30° C.
Procedure: Antifungal activity was tested against Malassezia furfur CBS 1878.
Malassezia furfur was grown on ML2 agar plates containing potato dextrose agar 4.2%, ox bile 0.8%, glycerol 1% (v:v), olive oil 1% (v:v), tween 60 0.5% (v:v) for two days, at 30° C., as stock culture.
An area of 2 cm^2 of a growing plate of Malassezia furfur stock culture was scraped using a sterile loop. Biomass was homogenated in 1 ml glycerol 20%. A volume of 100 μl of the glycerol homogenate was spread on testing ML2 plates.
Each test compound was dissolved in distilled water and added on blank paper discs (6 mm, diameter) on the inoculated plates. Plates were incubated for two days at 30° C. Inhibition circles around the discs (halo) were used as activity measure.
Ketoconazol was used as inhibition control.
The test was carried out at 15 nmol for each compound. Antifungal activities are shown at table 1.

Point of comparison: `CC(=O)N1CCN(c2ccc(OCC3COC(Cn4ccnc4)(c4ccc(Cl)cc4Cl)O3)cc2)CC1` (stereo not shown) [Ketoconazol], “Halo (inhibition circle around the disc)” value 23 mm. Against it:
- CO[C@@H]1C(=O)CC[C@]2(CO2)[C@@]1(O)[C@@]1(C)O[C@@H]1CC=C(C)C [Ovalicin] — higher, 46 mm
- COC1C(=O)CCC(O)(CCl)C1(O)C1(C)OC1CC=C(C)C (stereo not shown) [Chlovalicin] — higher, 35 mm
- CO[C@@H]1[C@H](OC(=O)/C=C/C=C/C=C/C=C/C(=O)O)CC[C@]2(CO2)[C@H]1[C@@]1(C)O[C@@H]1CC=C(C)C [Fumagillin] — higher, 27 mm
